Reference: patent US11801284B2, “Compositions and methods for treating motor neuron diseases” (The Trustees of Columbia University in the City of New York, priority 2017, dated 2023)

Assays:
luciferase = luciferase refolding assay (chaperone activity); format: biochemical; settings: crude yeast lysate from cells transfected with Hspa8^G470R or WT construct; FIG. 4
Description: Expt. 2A: Does the G470R mutation affect Hspa8 chaperone activity? There is a fine balance between the chaperone activity of Hspa8, which involves ATP and the co-chaperone proteins Sgt (small […] tetratricopeptide repeat-containing protein) and CSP (cysteine string protein), and its role in microautophagy, which is effected independently of ATP and the co-chaperones^36. Altering the ratio of Hspa8 with respect to its co-chaperones, or introducing mutations in certain Hspa8 domains, can shift the balance towards or away from microautophagy and thus alter neurotransmission at the NMJ. For instance, mutations in the ATPase domain disrupt chaperone activity but leave the role of Hspa8 in microautophagy intact. In contrast, mutations in the C-terminal domain of Hspa8, which mediate the interaction of the protein with the lysosomal/endosomal membrane, abolish microautophagy but fail to affect the ability of the protein to refold proteins (chaperone activity). […] To test this, we will examine the ability of Hspa8^G470R to refold luciferase. […] The bioluminescence from the luciferase will be assayed, following the addition of Luciferase Assay reagent (Promega), at regular intervals in a luminometer or plate reader. […]

S. cerevisae = assay: in vivo microautophagy assay (vacuolar membrane invagination and intraluminal vesicle formation in yeast); format: cell-based; settings: in vivo study employing WT and Hspa8^G470R proteins
Description: Expt. 2B: Does the G470R mutation affect Hspa8-dependent microautophagy? Hspa8-dependent microautophagy relies on the ability of the protein to bind the lysosomal/endosomal membrane. In so doing, Hspa8 deforms the membrane to form tubules, a phenomenon that can be quantified using a “tubulation” assay^36. […] To test this, we will subject the two proteins and a control, Hspa8^3KA, that fails to deform membranes^36, to the tubulation assay. Essentially, bacterial lysate from E. coli over-expressing the different Hspa8 molecules will be combined with fluorescently labeled giant unilamellar vesicles (GUVs) made from a defined mixture of lipids that roughly mimic synaptic membranes^49, and the ability of the proteins to trigger membrane deformation/tubule formation will be assessed by fluorescence microscopy. To complement these in vitro experiments, we will assess the ability of Hspa8^G470R protein to deform membranes in vivo. For this, the protein and relevant controls will be separately expressed in S. cerevisae and vacuolar membrane invagination and intraluminal vesicle formation determined using a co-expressed Vba1-GFP construct as a marker^50.

SMN = SMN levels in spinal cord tissue of SMA mice by western blotting; format: in vivo; settings: PND10 SMA mice, western blot, β-tubulin loading control; FIG. 7
Method: PND10 mice of the indicated genotypes were euthanized, and the spinal cord tissue extracted to determine SMN levels by western blotting. β-tubulin was used as a loading control. Band intensities were determined using the NIH ImageJ software.

## Hspa8^G470R: mutant Hsp70 family member protein Hspa8 with G470R missense mutation in the substrate binding domain
luciferase
  chaperone activity (efficiency relative to lysate containing WT Hspa8): only a third as efficient
S. cerevisae
  competence in microautophagy assay: competent
SMN
  SMN level in spinal cord tissue: increases SMN
